From PMC9797307, “Measurement of Pharmacokinetics and Tissue Distribution of Four Compounds from Nauclea officinalis in Rat Plasma and Tissues through HPLC-MS/MS” (Journal of Analytical Methods in Chemistry, 2022)

Experiments:
[1] = Tissue distribution in rats after oral administration of Nauclea officinalis extracts (HPLC-MS/MS); format: in vivo
Experimental: (§1) Chromatographic analysis was performed on the LC-20ADXR System (Shimadzu, Japan). The Phenomenex Kinete EVO C18 100 Å (50 mm × 2.1 mm, 5 μm) column was used as the analytical column maintained at 40°C with (A) 0.1% formic acid aqueous solution and (B) acetonitrile as the mobile phase. […] The flow rate was 0.8 mL/min, and the injection volume was 5 μL.
(§2) Mass spectrometric detection was performed on an AB-SCIEX API 4000 mass spectrometer (AB SCIEX, Singapore) with ESI in negative ion multiple reaction monitoring (MRM) mode. The optimized instrument parameters were as follows: nebulizer gas: 50 psi, heated by N2 gas: 55 psi, ion spray voltage: −4500 V and temperature: 550°C; nebulizer, blowback gas, and collision gas were nitrogen; declustering potential (DP), collision energy (CE), and collision cell exit potential (CXP) of the four analytes and chloramphenicol (IS) are shown in Table 1.
Thirty rats were divided into five groups (n = 6) at random, which were orally administered Nauclea officinalis extracts at a dose of 2 g/kg for tissue distribution conducted at 0.5, 1, 2, 4, and 6 h. During the collection, the heart, liver, spleen, lung, kidney, stomach, small intestine, and brain were rinsed with physiological saline solution to get rid of the blood or content and blotted on filter paper and then weighed. Each tissue sample was accurately weighed and homogenized by using physiological saline at four times the tissue weight (w/v). The homogenates were stored at −80°C until analysis.
Drugs enter tissues that receive high blood flow first, followed by those that receive low blood flow.

[2] = Pharmacokinetic study in rat plasma after oral administration of Nauclea officinalis extracts (HPLC-MS/MS); format: in vivo, Male Sprague–Dawley (SD) rats; conditions: oral Nauclea officinalis extracts 2 g/kg, noncompartment model, mean ± SD; for Cmax / MRT last / Vd/F / half-life: male, Sprague-Dawley; for Cmax: n = 6, read-out: C max (maximum plasma concentration); for MRT last: n = 6, read-out: MRT (0 − t); for Vd/F: n = 6, read-out: Vz/F (apparent distribution volume); for half-life: n = 6, read-out: t1/2 (elimination half-life) (converted)
Experimental: as §1, §2
Six male SD rats were tested in pharmacokinetics studies. […] The blood samples (approximately 0.5 mL) were collected via the venous plexus of the eye socket at 0.083, 0.25, 0.5, 1, 2, 4, 6, 8, […], 12, and 24 h under anesthesia. Next, each sample was immediately centrifuged at 4000 rpm for 10 min to acquire the plasma. The plasma was transferred to new tubes and stored at −80°C until further use. The pharmacokinetics parameters of the four compounds in rat plasma were calculated by the noncompartment model using Drug and Statistics (DAS 3.3.0) software (Beijing, China).
Pharmacokinetic parameters of four compounds were calculated by noncompartmental model using DAS 3.3.0 software.

Compound	Peak concentration in most tissues versus plasma ([1]; after oral extract 2 g/kg)	Cmax [2] [ng/mL]	MRT last [2] [h]	Vd/F [2] [L/kg]	half-life [2] [h]	AUC (0 − ∞) ([2]; n = 6) [μg/L∗h]	CL (clearance rate) ([2]; n = 6) [mL/min/kg]	CL (clearance rate) ([2]; n = 6, listed as chlorogenic acid) [mL/min/kg]	Abundance in small intestine versus stomach ([1]; after oral extract 2 g/kg)	Detection in studied tissues ([1]; heart, liver, spleen, lung, kidney, small intestine, stomach, brain, 0.5-6 h after oral extract 2 g/kg)	AUC (0 − t) ([2]; n = 6) [μg/L∗h]	T max (time to Cmax) ([2]; n = 6) [h]
O=C(/C=C/c1ccc(O)c(O)c1)O[C@@H]1C[C@](O)(C(=O)O)C[C@@H](O)[C@H]1O [Chlorogenic acid]	much lower than in plasma	242 ± 84.7	5.33 ± 0.65	916 ± 452	10.6 ± 6.21	554.37 ± 166.14	1049 ± 266.7	1049 ± 266.6				
C/C=C1/COC(=O)[C@H]2C(=O)N3CCc4c([nH]c5ccccc45)[C@@H]3C[C@@H]12 [Naucleactonin C]		1010 ± 369	4.76 ± 1.57	0.966 ± 0.359	4.59 ± 1.65	5405.02 ± 416.99	2.5 ± 0.17		more abundant in the small intestine than in the stomach	could be detected in all studied tissue	5281.36 ± 440.02	1.66
